Source: publication PMC10591915 (ACS chemical biology, 2023)
Like-named read-outs stand apart in the source and are kept apart here.

How the values were obtained:
[1] = values as provided by PubChem; ref PubChem; cited from earlier work
human CRBP1 [2] = molecular target: T1, human CRBP1 (Homo sapiens, UniProt P09455); test: fluorescence atROL-replacement assay (Ki determination); assay type: binding
T1 sequence (P09455 1-135): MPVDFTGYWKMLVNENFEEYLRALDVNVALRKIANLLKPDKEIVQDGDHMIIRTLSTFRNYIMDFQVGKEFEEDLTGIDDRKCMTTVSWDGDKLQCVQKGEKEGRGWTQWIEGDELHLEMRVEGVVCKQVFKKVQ

albino mice = conditions: cited from earlier work
human CRBP1 [3] = molecular target: T1, human CRBP1; conditions: abn-CBD reference value; cited from earlier work

SMILES | Ki (human CRBP1 [2]) | log P [1] | protection against light-induced retinal damage (albino mice) | Ki (human CRBP1 [3])
COCC1CCN(Cc2nc(C(c3ccccc3)c3ccccc3)no2)CC1 [inhibitor 3, 3-benzhydryl-5-[[4-(methoxymethyl)piperidin-1-yl]methyl]-1,2,4-oxadiazole] |  | 4.0 |  | 
C=C(C)[C@@H]1CCC(C)=C[C@H]1c1c(O)cc(O)cc1CCCCC [abn-CBD, 4-[(1R,6R)-3-Methyl-6-prop-1-en-2-ylcyclohex-2-en-1-yl]-5-pentylbenzene-1,3-diol] |  | 6.5 | protecting against this condition in albino mice | 0.067 µM
COc1ccc(S(=O)(=O)N2CCC(O)(CO)CC2)c2c1CCCC2 [inhibitor 4, 4-(hydroxymethyl)-1-[(4-methoxy-5,6,7,8-tetrahydronaphthalen-1-yl)sulfonyl]piperidin-4-ol] |  | 1.4 |  | 

Second part, led by results:

Ki (human CRBP1 [2]) | SMILES | log P [1] | protection against light-induced retinal damage (albino mice) | Ki (human CRBP1 [3])
10.6 ± 2.5 µM | CC(c1cccs1)N(C)Cc1nc(C(c2ccccc2)c2ccccc2)no1 (stereo not shown) [inhibitor 5, N-[(3-benzhydryl-1,2,4-oxadiazol-5-yl)methyl]-N-methyl-1-thiophen-2-ylethanamine] | 5.0 |  | 
7.1 ± 2.7 µM | CCN(CCn1cccn1)Cc1nc(C2(c3ccc(C)cc3)CCCC2)no1 [inhibitor 2, N-ethyl-N-[[3-[1-(4-methylphenyl)cyclopentyl]-1,2,4-oxadiazol-5-yl]methyl]-2-pyrazol-1-ylethanamine] | 4.0 |  | 
9 ± 4.1 µM | Cc1ccc(C2(c3noc(CN(C)Cc4cccs4)n3)CCCC2)cc1 [inhibitor 1, N-methyl-N-[[3-[1-(4-methylphenyl)cyclopentyl]-1,2,4-oxadiazol-5-yl]methyl]-1-thiophen-2-ylmethanamine] | 4.9 |  | 
10.7 ± 4.5 µM | Cc1ccc(C2(c3noc(CN(C)Cc4cnn(C)c4)n3)CCCC2)cc1 [inhibitor 6, N-methyl-N-[[3-[1-(4-methylphenyl)cyclopentyl]-1,2,4-oxadiazol-5-yl]methyl]-1-(1-methylpyrazol-4-yl)methanamine] | 3.5 |  | 
